Experimental data: patent publication US7932273B2, “3-[(2-{[4-(hexyloxycarbonylaminoiminomethyl) phenylamino]methyl}-1-methyl-1H-benzimidazol-5-carbonyl)pyridin-2-ylamino]propionic acid ethylester methansulfonate and its use as a medicament” (Boehringer Ingelheim International GmbH, priority 2003, dated 2011)

Columns and labels:
Format in all cases: physicochemical
[1] = amorphization during grinding and compression; conditions: all three crystalline modifications
[2] = hygroscopicity of the crystalline modifications; conditions: in all three crystalline modifications (form I, form II, hemihydrate)
[3] = solubility in physiologically acceptable acid aqueous media; conditions: all three crystalline modifications

CCCCCCOC(=O)NC(=N)c1ccc(NCc2nc3cc(C(=O)N(CCC(=O)OCC)c4ccccn4)ccc3n2C)cc1 [methanesulfonate, ethyl 3-[(2-{[4-(hexyloxycarbonylaminoimino-methyl)phenylamino]methyl}-1-methyl-1H-benzimidazole-5-carbonyl)pyridin-2-ylamino]propionate methanesulfonate]
amorphization [1]: low amorphization | hygroscopicity [2]: non-hygroscopic | solubility [3]: dissolves very easily
